# Patent US9789096B2, “Methods and compositions for selective and targeted cancer therapy” (Board of Regents of the University of Texas System, priority 2013, dated 2017)
# Tests used:
# [1] = tested on: H1993; assay: Cell viability dose-response, H1993; type: cell-based; conditions: Homo sapiens, NCI-H1993; 12-point dose-response starting at 50 micromolar, 3-fold increments, in duplicate; read-out: toxicity data, H1993
# Summary of the method: (§1)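 Compound is titrated onto cells seeded at 15% confluence and incubated four days in 5% FBS RPMI-1640 medium. ATP-based luminescence gives viability; duplicate means ±SEM define the dose-response curve.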
# [2] = tested on: HBEC30KT; assay: Cell viability (ATP, Cell Titer Glo, 4 days), HBEC30KT; type: cell-based, human; conditions: Homo sapiens, 12-point dose-response starting at 50 micromolar, 3-fold increments, in duplicate; read-out: toxicity data, HBEC30KT
# [3] = tested on: H1395; assay: Cell viability dose-response, H1395; type: cell-based; conditions: Homo sapiens, NCI-H1395; 12-point dose-response starting at 50 micromolar, 3-fold increments, in duplicate; read-out: toxicity data, H1395
# Summary of the method: as §1
# [4] = tested on: HCC366; assay: Cell viability dose-response, HCC366; type: cell-based; conditions: Homo sapiens, 12-point dose-response starting at 50 micromolar, 3-fold increments, in duplicate, read-out: toxicity data, HCC366
# Procedure: FIG. 6A. […] Cell viability is plotted vs. compound concentration. Compound was added to cells plated at 15% confluence in 96-well plates in RPMI-1640 media supplemented with 5% Fetal Bovine Serum and 2 mM L-Glutamine. After 4 days of incubation, ATP levels were measured using Cell Titer Glo (Promega). Data are presented as the average of 2 replicates ±SEM.
# Selectivity may be measured by the half maximal inhibitory concentration (IC50), which, as used herein, is a measure of the effectiveness of a compound in killing cells. This quantitative measure indicates how much of a particular compound is needed to kill a particular cell population by half (e.g., as indicated by the amount of ATP). […] The IC50 can be determined by constructing a dose-response curve. The lower the IC50, the higher the potency, and the greater the difference between IC50 values for different cell lines (e.g., sensitive lines vs. insensitive lines, and sensitive lines vs. normal lines) the greater the selectivity. […]
# With this information, we synthesized and tested a series of small molecules derived in conception from the oxalamide and chromone scaffold including N-acyl ureas, as shown in Tables 6-8. Each compound was tested in a 12-point dose-response study starting at 50 micromolar and decreasing in 3-fold increments to sub-nanomolar concentrations, in duplicate. Additionally, one or more additional cell line was tested in the same way.
# [5] = tested on: HCC4017; assay: Cell viability dose-response, HCC4017; type: cell-based, human; conditions: Homo sapiens, HCC4017, 12-point dose-response starting at 50 micromolar, 3-fold increments, in duplicate; read-out: toxicity data, HCC4017
# Summary of the method: as §1
# [6] = tested on: HCC95; assay: Cell viability dose-response, HCC95; type: cell-based; conditions: Homo sapiens, 12-point dose-response starting at 50 micromolar, 3-fold increments, in duplicate, read-out: toxicity data, HCC95
# Summary of the method: as §1
# [7] = tested on: H2073; assay: Cell viability dose-response, H2073; type: cell-based, human; conditions: Homo sapiens, NCI-H2073, 12-point dose-response starting at 50 micromolar, 3-fold increments, in duplicate; read-out: toxicity data, H2073
# Summary of the method: as §1
# [8] = tested on: HCC44; assay: Cell viability dose-response, HCC44; type: cell-based, human; conditions: Homo sapiens, HCC44, 12-point dose-response starting at 50 micromolar, 3-fold increments, in duplicate; read-out: toxicity data, HCC44
# Summary of the method: as §1
# [9] = tested on: H2009; assay: Cell viability dose-response, H2009; type: cell-based, human; conditions: Homo sapiens, NCI-H2009; 12-point dose-response starting at 50 micromolar, 3-fold increments, in duplicate; read-out: toxicity data, H2009
# Summary of the method: as §1
# [10] = tested on: H2122; assay: Cell viability dose-response, H2122; type: cell-based, human; conditions: Homo sapiens, NCI-H2122, 12-point dose-response starting at 50 micromolar, 3-fold increments, in duplicate; read-out: toxicity data, H2122
# Summary of the method: (§2)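 Viability read as total ATP (Cell Titer Glo) following 4 days' compound exposure, with IC50 derived from dose-response curves. Duplicate 12-point series, top concentration 50 micromolar with 3-fold steps, on cells seeded at 15% confluence in RPMI-1640, 5% FBS, 2 mM L-glutamine.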
# [11] = tested on: H1819; assay: Cell viability dose-response, H1819; type: cell-based, human; conditions: Homo sapiens, NCI-H1819, 12-point dose-response starting at 50 micromolar, 3-fold increments, in duplicate; read-out: toxicity data, H1819
# Summary of the method: as §2
# [12] = tested on: H1155; assay: Cell viability dose-response, H1155; type: cell-based; conditions: Homo sapiens, NCI-H1155; 12-point dose-response starting at 50 micromolar, 3-fold increments, in duplicate; read-out: toxicity data, H1155
# Summary of the method: as §1
# [13] = tested on: HCC4017; assay: Metabolism by insensitive cells (HPLC/MS/MS); type: in vitro ADME, human
# Procedure: (§3) FIGS. 9A-9D. Selective toxins selectively cross-link to SCD1 in sensitive cells and are selectively metabolized in sensitive cells. FIG. 9A. 12 NSCLC cell lines were incubated with SW208108 and processed as described in FIG. 7. […] FIG. 9B. […] FIG. 9C. […] Demethylation is the anticipated mode of metabolism. FIG. 9D. A representative benzothiazole is demethylated by sensitive cell lines. […] Values in FIGS. 9C and 9D were obtained by tandem HPLC/MS/MS.
# (§4) In this context, 12 different NSCLC cell lines were treated with SW208108, lysed and clicked to a dye as previously described. […] To understand how SW208108 could selectively cross-link to SCD1 within some cell lines that expressed the enzyme but not other cell lines that expressed the same enzyme, we investigated the stability of a representative oxalamide in the presence of a sensitive and insensitive cell line. […] Similarly, a representative benzothiazole was metabolized by H2122 cells through, at least in part, the loss of the O-methyl group (FIG. 9D).
# [14] = tested on: H2122 cells; assay: Metabolism by sensitive cells (HPLC/MS/MS); type: in vitro ADME, human
# Procedure: as §3, §4
# [15] = tested on: H460; assay: Cell viability dose-response, H460; type: cell-based; conditions: Homo sapiens, NCI-H460; 12-point dose-response starting at 50 micromolar, 3-fold increments, in duplicate; read-out: toxicity data, H460
# Summary of the method: as §1
smiles,measurement,setting,value
COc1ccc(CCNC(=O)C(=O)Nc2cccc(Cl)c2)cc1 [SW027950],IC50,[1],50 µM
same,IC50,[2],34 µM
same,IC50,[3],50 µM
same,IC50,[4],50 µM
same,IC50,[5],≥ 50 µM
same,IC50,[6],0.35 µM
same,IC50,[7],1.4 µM
same,IC50,[8],34 µM
same,IC50,[9],20.3 µM
same,IC50,[10],0.35 µM
same,IC50,[11],≥ 50 µM
same,IC50,[12],50 µM
same,stability in the presence of an insensitive cell line,[13],completely stable
same,metabolism by sensitive H2122 cells,[14],metabolized
same,IC50,[15],3.9 µM
